According to ChEMBL document CHEMBL4433223, “Treatment of Prostate Cancers and Kennedy's Disease by PROTAC-Androgen Receptor Degradation” (ACS Med Chem Lett, 2019):

Assays:
[1] = molecular target: T1, von Hippel-Lindau disease tumor suppressor/Androgen receptor (Homo sapiens, UniProt P10275+P40337); experiment: Protac activity against VHL/AR in human VCAP cells assessed as induction of AR degradation incubated for 24 hrs by ELISA relative to untreated control; format: cell-based
Target sequence in this assay (P10275 whole entry, looked up): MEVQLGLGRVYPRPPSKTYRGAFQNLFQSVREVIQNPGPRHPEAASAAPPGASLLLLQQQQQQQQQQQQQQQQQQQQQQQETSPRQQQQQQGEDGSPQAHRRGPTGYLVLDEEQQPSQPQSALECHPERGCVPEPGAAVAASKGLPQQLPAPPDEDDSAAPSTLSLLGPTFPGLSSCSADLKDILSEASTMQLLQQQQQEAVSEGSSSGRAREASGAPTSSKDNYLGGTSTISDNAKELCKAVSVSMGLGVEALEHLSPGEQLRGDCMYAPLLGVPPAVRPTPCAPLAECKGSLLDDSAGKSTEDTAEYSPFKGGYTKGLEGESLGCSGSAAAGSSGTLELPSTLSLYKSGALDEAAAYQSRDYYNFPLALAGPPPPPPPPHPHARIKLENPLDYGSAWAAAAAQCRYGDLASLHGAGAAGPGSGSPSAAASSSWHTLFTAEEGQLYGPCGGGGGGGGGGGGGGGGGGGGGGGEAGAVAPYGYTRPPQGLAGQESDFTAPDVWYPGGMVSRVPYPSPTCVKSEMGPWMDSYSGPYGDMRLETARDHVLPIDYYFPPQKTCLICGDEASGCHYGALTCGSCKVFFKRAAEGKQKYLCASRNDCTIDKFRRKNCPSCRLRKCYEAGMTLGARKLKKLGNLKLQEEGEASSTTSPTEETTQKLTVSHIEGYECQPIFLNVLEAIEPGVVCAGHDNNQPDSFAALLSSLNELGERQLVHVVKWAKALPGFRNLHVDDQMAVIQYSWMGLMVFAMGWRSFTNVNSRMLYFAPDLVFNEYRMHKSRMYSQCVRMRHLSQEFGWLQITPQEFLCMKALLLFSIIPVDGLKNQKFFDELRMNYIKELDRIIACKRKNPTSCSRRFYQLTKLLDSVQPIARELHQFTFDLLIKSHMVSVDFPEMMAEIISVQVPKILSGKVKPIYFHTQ
Target sequence in this assay (P40337 whole entry, looked up): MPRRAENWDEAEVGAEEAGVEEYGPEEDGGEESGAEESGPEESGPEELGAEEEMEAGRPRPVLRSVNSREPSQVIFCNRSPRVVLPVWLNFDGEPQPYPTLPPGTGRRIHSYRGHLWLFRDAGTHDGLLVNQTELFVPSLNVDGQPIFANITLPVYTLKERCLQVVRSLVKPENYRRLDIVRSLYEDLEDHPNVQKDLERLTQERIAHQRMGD

[2] = molecular target: T1, von Hippel-Lindau disease tumor suppressor/Androgen receptor; experiment: Protac activity against VHL/AR in human LNCAP cells assessed as induction of AR degradation incubated for 24 hrs by ELISA; format: cell-based
Target sequence in this assay (P10275 whole entry): as the sequence (P10275 whole entry, looked up) above
Target sequence in this assay (P40337 whole entry): as the sequence (P40337 whole entry, looked up) above

[3] = molecular target: T1, von Hippel-Lindau disease tumor suppressor/Androgen receptor; experiment: Protac activity against VHL/AR in human LNCAP cells assessed as induction of AR degradation incubated for 24 hrs by ELISA relative to untreated control; format: cell-based
Target sequence in this assay (P10275 whole entry, looked up): as the sequence (P10275 whole entry, looked up) above
Target sequence in this assay (P40337 whole entry, looked up): as the sequence (P40337 whole entry, looked up) above

[4] = AUC (0 to 24 hrs) in CD1 mouse at 10 mg/kg, sc by LC/MS/MS analysis; format: ADME, organism-based; design: dose 10 mg/kg, time < 24 hr, route subcutaneous; details: in vivo
[5] = Cmax in CD1 mouse at 10 mg/kg, sc by LC/MS/MS analysis; format: ADME, organism-based; design: dose 10 mg/kg, route subcutaneous; details: in vivo
[6] = molecular target: T1, von Hippel-Lindau disease tumor suppressor/Androgen receptor; experiment: Protac activity against VHL/AR in human VCAP cells assessed as induction of AR degradation incubated for 24 hrs by ELISA; format: cell-based
Target sequence in this assay (P10275 whole entry): as the sequence (P10275 whole entry, looked up) above
Target sequence in this assay (P40337 whole entry): as the sequence (P40337 whole entry, looked up) above

Row | SMILES | DC50 [2] [µM] | Emax [3] [%] | AUC(0-t) at 24 h [4] [µg·h/mL] | Cmax [5] [µg/mL] | DC50 [6] [µM] | Emax [1] [%]
1 | Cc1ncsc1-c1ccc(CNC(=O)[C@@H]2C[C@@H](O)CN2C(=O)[C@@H](NC(=O)COCCCOCCN2CCC(c3ccc(N4C(=S)N(c5ccc(C#N)c(C(F)(F)F)c5)C(=O)C4(C)C)cc3)CC2)C(C)(C)C)cc1 | ≤ 0.501 | 51 to 70 | 15.6 to 40.2 |  |  | 26 to 50
2 | Cc1ncsc1-c1ccc(CNC(=O)[C@@H]2C[C@@H](O)CN2C(=O)[C@@H](NC(=O)COCCc2ccc(-c3ccc(C(=O)N[C@H]4C(C)(C)[C@H](Oc5ccc(C#N)c(Cl)c5)C4(C)C)cc3)cc2)C(C)(C)C)cc1 | ≤ 0.05 | > 71 | 15.6 to 40.2 | 1.53 |  | 
3 | Cc1ncsc1-c1ccc(CNC(=O)[C@@H]2C[C@@H](O)CN2C(=O)[C@@H](NC(=O)COCCCOCCCCCOc2ccc(N3C(=O)N(c4ccc(C#N)c(C(F)(F)F)c4)C(=O)C3(C)C)cc2)C(C)(C)C)cc1 | ≤ 0.05 | > 71 | 15.6 to 40.2 | 1.15 | ≤ 0.05 | 51 to 70

Continued, in another order:

Row | DC50 [2] [µM] | Emax [3] [%] | AUC(0-t) at 24 h [4] [µg·h/mL] | Cmax [5] [µg/mL] | DC50 [6] [µM] | SMILES | Emax [1] [%]
4 | ≤ 0.05 | > 71 | 15.6 to 40.2 |  |  | CC(C)(C)[C@H](NC(=O)COCCCCCOc1ccc(C(=O)N[C@H]2C(C)(C)[C@H](Oc3ccc(C#N)c(Cl)c3)C2(C)C)cc1)C(=O)N1C[C@H](O)C[C@H]1C(=O)NCc1ccc(-c2cncs2)cc1 | 
5 | ≤ 0.05 | > 71 | 15.6 to 40.2 | 1.9 |  | Cc1ncsc1-c1ccc([C@H](C)NC(=O)[C@@H]2C[C@@H](O)CN2C(=O)[C@@H](NC(=O)COCCCCCOc2ccc(C(=O)N[C@H]3C(C)(C)[C@H](Oc4ccc(C#N)c(Cl)c4)C3(C)C)cc2)C(C)(C)C)cc1 | 
6 | ≤ 0.05 | > 71 | 15.6 to 40.2 |  |  | Cc1ncoc1-c1ccc(CNC(=O)[C@@H]2C[C@@H](O)CN2C(=O)[C@@H](NC(=O)COCc2ccc(OC(=O)N[C@H]3C(C)(C)[C@H](Oc4ccc(C#N)c(Cl)c4)C3(C)C)cc2)C(C)(C)C)cc1 | 
